According to patent US20240239861A1, “GLUCAGON-RECEPTOR SELECTIVE POLYPEPTIDES AND METHODS OF USE THEREOF” (i2O Therapeutics, Inc., priority 2016, published 2024):
Like-named read-outs stand apart in the source and are kept apart here. *1 amine or outer side, *2 acyl side, *3 side chain or, on linkers, in order; H or OH if unused. Where a SMILES comes first, the peptide text is derived from it. Side-chain parts run from the residue outwards. [ ]: non-standard residue; d: D form. The star is where a group is joined. γGlu = O=C(O)[C@H](CCC(=O)[*:2])N[*:1]; Palmitoyl = CCCCCCCCCCCCCCCC(=O)*; Aib = CC(C)(N)C(=O)O

Experiments:
human GLP-1R = human GLP-1R (Homo sapiens, UniProt P43220); assay: Peptide-receptor mediated cAMP accumulation (LANCE Ultra cAMP) in CHO-K1 cells transfected with human GLP-1R; type: cell-based
human GCGR = human GCGR (Homo sapiens, UniProt P47871); assay: Peptide-receptor mediated cAMP accumulation (LANCE Ultra cAMP) in CHO-K1 cells transfected with human GCGR; type: cell-based
[1] = Table 7, GLP-1R, read-out: GLP-1R pEC50 (converted)
[2] = read-out: GluR pEC50 (converted)
[3] = hGLP1 pEC50 (cAMP mean (n = 3): 11 point curve starting at 1 nM, Table 3)

Sequence of human GLP-1R (P43220 24-463): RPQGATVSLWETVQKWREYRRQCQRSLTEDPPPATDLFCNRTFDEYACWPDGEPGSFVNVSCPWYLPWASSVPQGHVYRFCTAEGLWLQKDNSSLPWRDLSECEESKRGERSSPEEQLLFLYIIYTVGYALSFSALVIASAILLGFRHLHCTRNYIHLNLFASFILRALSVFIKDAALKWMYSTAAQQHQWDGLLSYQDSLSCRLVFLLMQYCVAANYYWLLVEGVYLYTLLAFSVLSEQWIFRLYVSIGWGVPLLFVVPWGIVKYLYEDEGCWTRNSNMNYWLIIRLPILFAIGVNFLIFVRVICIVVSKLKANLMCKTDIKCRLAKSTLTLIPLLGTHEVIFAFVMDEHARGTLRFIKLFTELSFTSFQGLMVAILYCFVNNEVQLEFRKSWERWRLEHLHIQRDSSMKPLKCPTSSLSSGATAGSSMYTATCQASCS
Sequence of human GCGR (P47871 26-477): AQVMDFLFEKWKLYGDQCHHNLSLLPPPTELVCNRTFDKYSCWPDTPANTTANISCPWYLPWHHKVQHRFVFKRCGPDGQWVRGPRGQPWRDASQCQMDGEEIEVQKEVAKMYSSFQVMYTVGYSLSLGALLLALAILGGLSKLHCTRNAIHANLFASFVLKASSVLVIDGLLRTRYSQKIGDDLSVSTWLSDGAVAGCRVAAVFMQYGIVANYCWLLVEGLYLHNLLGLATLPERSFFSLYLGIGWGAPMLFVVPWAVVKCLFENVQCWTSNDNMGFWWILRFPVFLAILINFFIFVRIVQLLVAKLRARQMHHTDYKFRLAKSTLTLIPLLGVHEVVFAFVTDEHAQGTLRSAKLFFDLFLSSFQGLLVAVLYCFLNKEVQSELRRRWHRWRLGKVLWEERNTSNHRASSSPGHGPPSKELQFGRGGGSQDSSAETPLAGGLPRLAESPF

Row | EC50 (human GLP-1R; [3]) [nM] | EC50 (human GCGR; Table 3) [nM] | Compound | EC50 (human GLP-1R; [1]) [nM] | EC50 (human GCGR; [2]) [nM]
1 | – | – | CCCCCCCCCCCCCCCC(=O)N[C@@H](CCC(=O)NCCCC[C@H](NC(=O)[C@H](CC(=O)O)NC(=O)[C@H](CO)NC(=O)[C@@H](NC(=O)[C@H](Cc1ccccc1)NC(=O)[C@@H](NC(=O)CNC(=O)[C@H](Cc1c[nH]cn1)NC(=O)[C@H](CO)NC(=O)[C@@H](N)Cc1ccc(O)cc1)[C@@H](C)O)[C@@H](C)O)C(=O)N[C@@H](CO)C(=O)N[C@@H](CCCCN)C(=O)N[C@@H](Cc1ccc(O)cc1)C(=O)N[C@@H](CC(C)C)C(=O)N[C@@H](CC(=O)O)C(=O)NC(C)(C)C(=O)N[C@@H](CCCCN)C(=O)N[C@@H](CCCNC(=N)N)C(=O)N[C@@H](C)C(=O)N[C@@H](CCC(N)=O)C(=O)N[C@@H](CCC(=O)O)C(=O)N[C@@H](Cc1ccccc1)C(=O)N[C@H](C(=O)N[C@H](C(=O)N[C@@H](Cc1c[nH]c2ccccc12)C(=O)N[C@@H](CC(C)C)C(=O)N[C@@H](CCC(=O)O)C(=O)N[C@@H](CC(=O)O)C(=O)N[C@@H](CCC(=O)O)C(=O)N1CCC[C@H]1C(=O)N[C@@H](CO)C(=O)N[C@@H](CO)C(=O)NCC(=O)N[C@@H](C)C(=O)N1CCC[C@H]1C(=O)N1CCC[C@H]1C(=O)N1CCC[C@H]1C(=O)N[C@@H](CO)C(=O)O)[C@@H](C)CC)C(C)C)C(=O)O [Compound B27] (H-YSHGTFTSDK([γGlu-Palmitoyl])SKYLD[Aib]KRAQEFVIWLEDEPSSGAPPPS-OH) | 251 | 0.00316
2 | > 1 | 0.00501 | CC(C)C[C@H](NC(=O)[C@H](Cc1ccc(O)cc1)NC(=O)[C@H](CCCCN)NC(=O)[C@H](CO)NC(=O)[C@H](Cc1ccc(O)cc1)NC(=O)[C@H](CC(=O)O)NC(=O)[C@H](CO)NC(=O)[C@@H](NC(=O)[C@H](Cc1ccccc1)NC(=O)[C@@H](NC(=O)CNC(=O)[C@H](Cc1c[nH]cn1)NC(=O)[C@H](CO)NC(=O)[C@@H](N)Cc1ccc(O)cc1)[C@@H](C)O)[C@@H](C)O)C(=O)N[C@@H](CC(=O)O)C(=O)NC(C)(C)C(=O)N[C@@H](C)C(=O)N[C@@H](CCCNC(=N)N)C(=O)N[C@@H](C)C(=O)N[C@@H](CCC(N)=O)C(=O)N[C@@H](CCC(=O)O)C(=O)N[C@@H](Cc1ccccc1)C(=O)N[C@H](C(=O)NC(C)(C)C(=O)N[C@@H](Cc1c[nH]c2ccccc12)C(=O)N[C@@H](CC(C)C)C(=O)N[C@@H](CCC(=O)O)C(=O)N[C@@H](CC(=O)O)C(=O)N[C@@H](CCC(=O)O)C(=O)N1CCC[C@H]1C(=O)N[C@@H](CCCCN)C(=O)N[C@@H](CO)C(=O)N[C@@H](CCCCN)C(=O)N[C@@H](CCC(=O)O)C(=O)N1CCC[C@H]1C(=O)N1CCC[C@H]1C(=O)N1CCC[C@H]1C(=O)N[C@@H](CO)C(N)=O)C(C)C [Compound A68] (H-YSHGTFTSDYSKYLD[Aib]ARAQEFV[Aib]WLEDEPKSKEPPPS-NH2; N-terminus assumed) | – | –
3 | – | – | CCCCCCCCCCCCCCCC(=O)N[C@@H](CCC(=O)NCCCC[C@H](NC(=O)[C@H](CC(=O)O)NC(=O)[C@H](CC(C)C)NC(=O)[C@H](Cc1ccc(O)cc1)NC(=O)[C@H](CCCCN)NC(=O)[C@H](CO)NC(=O)[C@H](Cc1ccc(O)cc1)NC(=O)[C@H](CC(=O)O)NC(=O)[C@H](CO)NC(=O)[C@@H](NC(=O)[C@H](Cc1ccccc1)NC(=O)[C@@H](NC(=O)CNC(=O)[C@H](CCC(N)=O)NC(=O)[C@H](CO)NC(=O)[C@@H](N)Cc1c[nH]c2ccccc12)[C@@H](C)O)[C@@H](C)O)C(=O)N[C@@H](CCCCN)C(=O)N[C@@H](CCCNC(=N)N)C(=O)N[C@@H](C)C(=O)N[C@@H](CCC(N)=O)C(=O)N[C@@H](CCC(=O)O)C(=O)N[C@@H](Cc1ccccc1)C(=O)N[C@H](C(=O)NC(C)(C)C(=O)N[C@@H](Cc1c[nH]c2ccccc12)C(=O)N[C@@H](CC(C)C)C(=O)N[C@@H](CCC(=O)O)C(=O)N[C@@H](CC(=O)O)C(=O)N[C@@H](CCC(=O)O)C(=O)N1CCC[C@H]1C(=O)N[C@@H](CO)C(=O)N[C@@H](CO)C(=O)NCC(=O)N[C@@H](C)C(=O)N1CCC[C@H]1C(=O)N1CCC[C@H]1C(=O)N1CCC[C@H]1C(=O)N[C@@H](CO)C(=O)O)C(C)C)C(=O)O [Compound B19] (H-WSQGTFTSDYSKYLDK([γGlu-Palmitoyl])KRAQEFV[Aib]WLEDEPSSGAPPPS-OH) | 501 | 0.0251
4 | > 1 | 0.00631 | CC(C)C[C@H](NC(=O)[C@H](Cc1ccc(O)cc1)NC(=O)[C@H](CCCCN)NC(=O)[C@H](CO)NC(=O)[C@H](Cc1ccc(O)cc1)NC(=O)[C@H](CC(=O)O)NC(=O)[C@H](CO)NC(=O)[C@@H](NC(=O)[C@H](Cc1ccccc1)NC(=O)[C@@H](NC(=O)CNC(=O)[C@H](Cc1c[nH]cn1)NC(=O)[C@H](CO)NC(=O)[C@@H](N)Cc1ccc(O)cc1)[C@@H](C)O)[C@@H](C)O)C(=O)N[C@@H](CC(=O)O)C(=O)NC(C)(C)C(=O)N[C@@H](CCCCN)C(=O)N[C@@H](CCCNC(=N)N)C(=O)N[C@@H](C)C(=O)N[C@@H](CCC(N)=O)C(=O)N[C@@H](CCC(=O)O)C(=O)N[C@@H](Cc1ccccc1)C(=O)N[C@H](C(=O)NC(C)(C)C(=O)N[C@@H](Cc1c[nH]c2ccccc12)C(=O)N[C@@H](CC(C)C)C(=O)N[C@@H](CCC(=O)O)C(=O)N[C@@H](CC(=O)O)C(=O)N[C@@H](CCC(=O)O)C(=O)N1CCC[C@H]1C(=O)N[C@@H](CO)C(=O)N[C@@H](CO)C(=O)N[C@@H](CCCCN)C(=O)N[C@@H](C)C(=O)N1CCC[C@H]1C(=O)N1CCC[C@H]1C(=O)N1CCC[C@H]1C(=O)N[C@@H](CO)C(=O)O)C(C)C [Compound A23] (H-YSHGTFTSDYSKYLD[Aib]KRAQEFV[Aib]WLEDEPSSKAPPPS-OH; N-terminus assumed) | – | –
5 | > 1 | 0.0126 | CC(C)C[C@H](NC(=O)[C@H](Cc1ccc(O)cc1)NC(=O)[C@H](CCCCN)NC(=O)[C@H](CO)NC(=O)[C@H](Cc1ccc(O)cc1)NC(=O)[C@H](CC(=O)O)NC(=O)[C@H](CO)NC(=O)[C@@H](NC(=O)[C@H](Cc1ccccc1)NC(=O)[C@@H](NC(=O)CNC(=O)[C@H](CCC(N)=O)NC(=O)[C@H](CO)NC(=O)[C@@H](N)Cc1c[nH]c2ccccc12)[C@@H](C)O)[C@@H](C)O)C(=O)N[C@@H](CC(=O)O)C(=O)NC(C)(C)C(=O)N[C@@H](CCCCN)C(=O)N[C@@H](C)C(=O)N[C@@H](C)C(=O)N[C@@H](CCC(N)=O)C(=O)N[C@@H](CCC(=O)O)C(=O)N[C@@H](Cc1ccccc1)C(=O)N[C@H](C(=O)NC(C)(C)C(=O)N[C@@H](Cc1c[nH]c2ccccc12)C(=O)N[C@@H](CC(C)C)C(=O)N[C@@H](CCC(=O)O)C(=O)N[C@@H](CC(=O)O)C(=O)N[C@@H](CCC(=O)O)C(=O)N1CCC[C@H]1C(=O)N[C@@H](CO)C(=O)N[C@@H](CO)C(=O)NCC(=O)N[C@@H](CCCCN)C(=O)N1CCC[C@H]1C(=O)N1CCC[C@H]1C(=O)N1CCC[C@H]1C(=O)N[C@@H](CO)C(=O)O)C(C)C [Compound A93] (H-WSQGTFTSDYSKYLD[Aib]KAAQEFV[Aib]WLEDEPSSGKPPPS-OH; N-terminus assumed) | – | –
6 | > 1 | 0.002 | CC(C)C[C@H](NC(=O)[C@H](Cc1ccc(O)cc1)NC(=O)[C@H](CCCCN)NC(=O)[C@H](CO)NC(=O)[C@H](Cc1ccc(O)cc1)NC(=O)[C@H](CC(=O)O)NC(=O)[C@H](CO)NC(=O)[C@@H](NC(=O)[C@H](Cc1ccccc1)NC(=O)[C@@H](NC(=O)CNC(=O)[C@H](Cc1c[nH]cn1)NC(=O)[C@H](CO)NC(=O)[C@@H](N)Cc1ccc(O)cc1)[C@@H](C)O)[C@@H](C)O)C(=O)N[C@@H](CC(=O)O)C(=O)N[C@@H](CO)C(=O)N[C@@H](C)C(=O)N[C@@H](CCCNC(=N)N)C(=O)N[C@@H](C)C(=O)N[C@@H](CCC(N)=O)C(=O)N[C@@H](CCC(=O)O)C(=O)N[C@@H](Cc1ccccc1)C(=O)N[C@H](C(=O)N[C@@H](CCCCN)C(=O)N[C@@H](Cc1c[nH]c2ccccc12)C(=O)N[C@@H](CC(C)C)C(=O)N[C@@H](CCC(=O)O)C(=O)N[C@@H](CC(=O)O)C(=O)N[C@@H](CCC(=O)O)C(=O)N1CCC[C@H]1C(=O)N[C@@H](CCCCN)C(=O)N[C@@H](CO)C(=O)N[C@@H](CCCCN)C(=O)N[C@@H](C)C(=O)N1CCC[C@H]1C(=O)N1CCC[C@H]1C(=O)N1CCC[C@H]1C(=O)N[C@@H](CO)C(=O)O)C(C)C [Compound A71] (H-YSHGTFTSDYSKYLDSARAQEFVKWLEDEPKSKAPPPS-OH; N-terminus assumed) | – | –

Row | Compound | EC50 (human GLP-1R; [3]) [nM] | EC50 (human GCGR; Table 3) [nM] | EC50 (human GLP-1R; [1]) [nM] | EC50 (human GCGR; [2]) [nM]
7 | CC(C)C[C@H](NC(=O)[C@H](Cc1ccc(O)cc1)NC(=O)[C@H](CCCCN)NC(=O)[C@H](CO)NC(=O)[C@H](Cc1ccc(O)cc1)NC(=O)[C@H](CC(=O)O)NC(=O)[C@H](CO)NC(=O)[C@@H](NC(=O)[C@H](Cc1ccccc1)NC(=O)[C@@H](NC(=O)CNC(=O)[C@H](Cc1c[nH]cn1)NC(=O)[C@H](CO)NC(=O)[C@@H](N)Cc1ccc(O)cc1)[C@@H](C)O)[C@@H](C)O)C(=O)N[C@@H](CC(=O)O)C(=O)NC(C)(C)C(=O)N[C@H](C(=O)N[C@@H](CCCNC(=N)N)C(=O)N[C@@H](C)C(=O)N[C@@H](CCC(N)=O)C(=O)N[C@@H](CCC(=O)O)C(=O)N[C@@H](Cc1ccccc1)C(=O)N[C@H](C(=O)NC(C)(C)C(=O)N[C@@H](Cc1c[nH]c2ccccc12)C(=O)N[C@@H](CC(C)C)C(=O)N[C@@H](CCC(=O)O)C(=O)N[C@@H](CC(=O)O)C(=O)N[C@@H](CCC(=O)O)C(=O)N1CCC[C@H]1C(=O)N[C@@H](CO)C(=O)N[C@@H](CO)C(=O)NCC(=O)N[C@@H](C)C(=O)N1CCC[C@H]1C(=O)N1CCC[C@H]1C(=O)N1CCC[C@H]1C(=O)N[C@@H](CO)C(=O)O)C(C)C)[C@@H](C)O [Compound A16] (H-YSHGTFTSDYSKYLD[Aib]TRAQEFV[Aib]WLEDEPSSGAPPPS-OH; N-terminus assumed) | > 1 | 0.00126 | – | –
